Laboratory results taken from patent US20240059695A1, “SUBSTITUTED IMIDAZO[1,5-b]PYRIDAZINE COMPOUNDS AS KINASE INHIBITORS AND USE THEREOF” (IMPACT THERAPEUTICS (SHANGHAI), INC, priority 2020, published 2024).

How the values were obtained:
[1] = tested on: human lung cancer NCI-H460 cell; assay: MTT proliferation assay, NCI-H460; type: cell-based; settings: NCI-H460, 96 h, MTT, 4 days, read-out: IC50 (nM), proliferation of NCI-H460 cell
Procedure: The cells were digested by trypsinase and centrifuged at 800 rpm for 5 minutes, the supernatant was discarded, and the residual was resuspended with fresh medium […]) and counted.
The cells were seeded into 96-well cell culture plate with a density of 2000/4000 cells per well and incubated overnight in a 5% CO2 incubator at 37° C. […] 5 μL diluent of each concentration was added to 120 μL of medium (25 times diluted) and mixed by shaking. The overnight cell plates were taken and the culture medium was removed, 195 μL of fresh medium was added to each well, and 5 μL of diluted medium containing the corresponding concentration of the test compound was added respectively (the final concentration of DMSO is 1%), and the culture plate was then placed in a 5% CO2 incubator at 37° C. for 4 days. After removing the original solution, 100 μL of fresh serum-free DMEM medium containing MTT (0.5 mg/mL) was added to each well, the culture was continued. […] Cell viability (%)=(ODcompound−ODbackground)/(ODDMSO−ODbackground)×100. GraphPad Prism 6.0 was used to analyze the data. The inhibitory activity of compounds on cell proliferation was plotted based on cell viability and the logarithm of compound concentration. The IC50 value was fitted by a sigmoidal dose response curve equation […], wherein C was the concentration of compound.

[2] = Pharmacokinetics following single oral administration to mice; type: in vivo; settings: mouse, CD-1 (ICR) mice, gavage 10 mg/kg, 0.5% methylcellulose/water suspension, plasma
Procedure: The compound of the present invention was formulated into a 0.5% methylcellulose/water uniform suspension, and was administered to CD-1 (ICR) mice by gavage at 10 mg/kg. Plasma samples were collected at 8 time points of 0.250, 0.500, 1.00, 2.00, 4.00, 6.00, 8.00 and 24.0 hours post-dose. Concentrations of the compound were determined by LC-MS/MS method.

[3] = tested on: human non-small cell lung cancer A549 cell; assay: MTT proliferation assay of Example 1, A549; type: cell-based; settings: A549, 96 h, 4 days
Procedure: The cells were digested by trypsinase and centrifuged at 800 rpm for 5 minutes, the supernatant was discarded, and the residual was resuspended with fresh medium (1640 medium+10% FRS) and counted. The cells were seeded into 96well cell culture plate with a density of 2000/4000 cells per well and incubated overnight in a 5% CO2 incubator at 37° C. The stock solutions of the test substances were serially diluted to 8 concentrations by DMSO at the ratios of 1:3 and 1:10, respectively. 5 μL diluent of each concentration was added to […] (25 times diluted) and mixed by shaking. The overnight cell plates were taken and the culture medium was removed, 195 μL of fresh medium was added to each well, and 5 μL of diluted medium containing the corresponding concentration of the test compound was added respectively (the final concentration of DMSO is 1%), and the culture plate was then placed in a 5% CO2 incubator at 37° C for 4 days. After removing the original solution, […] of fresh serum-free DMEM medium containing MTT (0.5 mg/mL) was added to each well, the culture was continued. After 4 hours, the original solution was removed, 100 μL, of DMSO was added to each well, the 96-well plates were shaken for 10 minutes in the dark and placed in a multi-function reader to read the absorbance at the wavelength of 552/690 nm. […]

IC50 [1]: 16.5 nM | AUC(0-inf) [2]: 98500 ng·h/mL | AUC(0-t) [2]: 98500 ng·h/mL | Cmax [2]: 9340 ng/mL | half-life [2]: 1.64 h | IC50 [3]: 157 nM
Structure (SMILES): Cc1nc(-c2ccn[nH]2)n2nc(N3CCOC[C@H]3C)cc(-c3ccnn3C)c12 [Example 1, (R)-3-methyl-4-(5-methyl-4-(1-methyl-1H-pyrazol-5-yl)-7-(1H-pyrazol-5-yl)imidazo[1,5-b]pyridazin-2-yl)morpholine]
